Laboratory results from PMC2440032, “Odorranalectin Is a Small Peptide Lectin with Potential for Drug Delivery and Targeting” (PLoS ONE, 2008).
“And” between values parts separate entries of the source, which are not always exact repeats. Equal entries are not always repeated.

How the values were obtained:
[1] = test system: odorranalectin-mediated erythrocytes hemagglutination; assay: Hemagglutination-inhibition test; type: cell-based, rabbit; conditions: for MIC, minimum concentration to inhibit odorranalectin-mediated erythrocytes hemagglutination: inhibition of four hemagglutination doses of odorranalectin
Procedure: Intact, pronase-treated, trypsin-treated, and formaldehyde-treated rabbit erythrocytes were prepared. Assays were carried out in U-well microtiter plates (96 wells) as described previously [21]–[23]. The details are provided in the supplementary materials (Materials and Methods S1).
Inhibition was expressed as the minimum concentration of each sugar or glycoprotein required for inhibition of hemagglutination of titer 4 of the lectin.

[2] = target: immobilized odorranalectin (Odorrana grahami, UniProt B3TFE9); assay: SPR, analytes on immobilized odorranalectin; type: binding
Procedure: Real time detection of odorranalectin and its mutants binding to glycoproteins and L-fucose was recorded by using a Biacore 3000 [21]–[24]. The details are provided in the supplementary materials (Materials and Methods S1).
SPR Analysis. Real time detection of odorranalectin and its mutants binding to glycoproteins and L-fucose was recorded by using a Biacore 3000 [21-24]. Odorranalectin was immobilized covalently via their primary amines to carboxyl groups within a dextran layer on the sensor chip CM-5 according to the manufacturer’s specifications. After chip activation with 0.4 M 1-ethyl-3- (3-dimethylaminopropyl) carbodiimide hydrochloride and 10 mM N-hydroxysuccinimide, odorranalectin or its mutants (in 10 mM sodium acetate buffer, pH 4.0) at a concentration of 100 μg/ml was passed through the flow cells at a rate of 5 μl/min. After immobilization, the chip was capped by exposure to 1 M ethanolamine (pH 8.5).
All analyses were performed at a flow rate of 30 μl/min. Before loading of analytes, the chip was equilibrated with 10 mM HEPES-buffered saline containing 3 mM EDTA and 0.005% surfactant P-20, pH 7.4 (HBS-EP). Each analyte at various concentrations in the same buffer was injected over the immobilized ligand for 4 min. After injection of the analyte, HBS-EP was introduced onto the sensor surface to start dissociation, and dissociation data were collected for 5 min. The chip was regenerated by injection of 5μl of 10 mM HCl or NaOH, followed by HBS-EP.
Association and dissociation rate constants (ka and kd) were calculated by using BIA evaluation 4.0 software (Biacore AB, Sweden). The affinity constant (KD) was calculated from the ka and kd. For the calculation of rate constants, samples were appropriately diluted in HBS-EP at various concentrations.

[3] = SPR Biacore 3000, CM-5 chip, HBS-EP pH 7.4, 1:1 binding model

Row | Molecule | MIC, minimum concentration to inhibit odorranalectin-mediated erythrocytes hemagglutination ([1]; sugars) | also measured
1 | O=[N+]([O-])c1ccccc1O[C@@H]1O[C@H](CO)[C@H](O)[C@H](O)[C@H]1O [2-nitrophenyl-β-D-galactopyranoside] | > 200 mM | –
2 | OC[C@H]1O[C@@H](Oc2c[nH]c3ccc(Br)c(Cl)c23)[C@H](O)[C@@H](O)[C@H]1O [5-bromo-4-chloro-3-indoxyl-β-D-galactopyranoside] | > 200 mM | –
3 | OC1OC[C@@H](O)[C@@H](O)[C@@H]1O (stereo partly drawn) [D(+)-arabinose] | > 200 mM | –
4 | OC[C@H]1O[C@@H](O[C@H]2[C@H](O)[C@@H](O)[C@H](O)O[C@@H]2CO)[C@H](O)[C@@H](O)[C@@H]1O [D(+)-cellobiose] | > 200 mM | –
5 | OC[C@H]1OC(O)[C@H](O)[C@@H](O)[C@H]1O (stereo partly drawn) [D(+)-galactose] | > 200 mM | –
6 | O=C(O)[C@H]1OC(O)[C@H](O)[C@@H](O)[C@H]1O (stereo partly drawn) [D(+)-galacturonic acid] | > 200 mM | –
7 | O.OC[C@H]1O[C@@](CO)(O[C@H]2O[C@H](CO)[C@@H](O)[C@H](O)[C@H]2O)[C@@H](O[C@H]2O[C@H](CO)[C@@H](O)[C@H](O)[C@H]2O)[C@@H]1O [D(+)-melezitose monohydrate] | > 200 mM | –
8 | O.O.O.O.O.OC[C@H]1O[C@H](OC[C@H]2O[C@H](O[C@]3(CO)O[C@H](CO)[C@@H](O)[C@@H]3O)[C@H](O)[C@@H](O)[C@@H]2O)[C@H](O)[C@@H](O)[C@H]1O [D(+)-raffinose pentahydrate] | > 200 mM | –
9 | OC1COC(O)C(O)C1O (stereo not drawn) [D(+)-xylose] | > 200 mM | –
10 | OC[C@H]1OC(O)[C@H](O)[C@@H](O)[C@@H]1O (stereo partly drawn) [D-glucose] | > 200 mM | –
11 | O=C(CO)[C@H](O)[C@@H](O)[C@H](O)CO [D-sorbose] | > 200 mM | –
12 | OC[C@H]1O[C@H](O[C@H]2O[C@H](CO)[C@@H](O)[C@H](O)[C@H]2O)[C@H](O)[C@@H](O)[C@@H]1O [D-trehalose] | > 200 mM | –
13 | C[C@@H]1O[C@@H](O)[C@H](O)[C@H](O)[C@H]1O.O [L(+)-rhamnose monohydrate] | > 200 mM | –
14 | C[C@H](O)[C@@H](O)[C@@H](O)[C@H](O)C=O [L-fucose, reference compound] | – | Kd ([2]; SPR Biacore 3000, CM-5 chip, HBS-EP pH 7.4, calculated from ka and kd): 54.7 µM; kon ([2]; pH 7.4, read-out: ka): 159 M⁻¹ s⁻¹; koff ([2]; pH 7.4, read-out: kd): 0.00867 s⁻¹; minimal effective concentration ([1]; Oryctolagus cuniculus, Erythrocyte, read-out: MIC, minimum concentration to inhibit odorranalectin-mediated erythrocytes hemagglutination): 12500 µM
15 | CC(=O)N[C@@H]1C(O)O[C@H](CO)[C@@H](O)[C@@H]1O (stereo partly drawn) [N-acetyl-D-mannosamine] | > 200 mM | –
16 | CC(=O)N[C@@H]1[C@@H](O)[C@@H](O)[C@@H](CO)O[C@@H]1O [N-acetylgalactosamine] | > 200 mM | –
17 | O=C(CO)N[C@H]1[C@H]([C@H](O)[C@H](O)CO)OC(O)(C(=O)O)C[C@@H]1O (stereo partly shown) [N-glycolylneuraminc acid] | > 200 mM | –
18 | OC[C@@H](O)[C@H](O)[C@H](O)[C@@H](O)CO [dulcitol] | > 200 mM | –
19 | CC(C)S[C@@H]1O[C@H](CO)[C@H](O)[C@H](O)[C@H]1O [isopropy-β-D-thiogalactoside] | > 200 mM | –
20 | D(+)-maltose monohydrate | > 200 mM | –
21 | Fetuin: glycoprotein used as analyte and inhibitor | – | ka [2, 3]: 2890 M⁻¹ s⁻¹; kd [2, 3]: 0.00061 s⁻¹; Inhibition of the hemagglutinating activity of odorranalectin by glycoproteins (in words) [1]: most effective inhibitor; MIC, minimum concentration to inhibit odorranalectin-mediated erythrocytes hemagglutination ([1]; glycoproteins): 15.63 µg/mL and 15.6 µg/mL
22 | Transferrin: glycoprotein used as analyte | – | Binding to immobilized odorranalectin (in words) ([2]; SPR): did not bind; Inhibition of the hemagglutinating activity of odorranalectin by glycoproteins (in words) [1]: All the glycoproteins except transferrin could inhibit
23 | heparin | > 200 mM | –
24 | inulin | > 200 mM | –
